According to ChEMBL document CHEMBL1201862, “PubChem BioAssay data set” (2004):
The source made the active and inactive calls.

Tests used:
[1] = biological target: T1, Heat shock factor protein 1 (Mus musculus, UniProt P38532); assay: HSF1 potentiators in luciferase reporter cells, confirmation, cell-based, NIH3T3, luminescence, dose retest (AID 435004); type: functional;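 further: stress induced by proteasome inhibitor MG132 added 30 min after compound; luciferase reporter driven by HSF1 response element in NIH3T3 cells; actives raise luminescence as potentiators of the MG132 stress response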
T1 sequence (P38532 whole entry): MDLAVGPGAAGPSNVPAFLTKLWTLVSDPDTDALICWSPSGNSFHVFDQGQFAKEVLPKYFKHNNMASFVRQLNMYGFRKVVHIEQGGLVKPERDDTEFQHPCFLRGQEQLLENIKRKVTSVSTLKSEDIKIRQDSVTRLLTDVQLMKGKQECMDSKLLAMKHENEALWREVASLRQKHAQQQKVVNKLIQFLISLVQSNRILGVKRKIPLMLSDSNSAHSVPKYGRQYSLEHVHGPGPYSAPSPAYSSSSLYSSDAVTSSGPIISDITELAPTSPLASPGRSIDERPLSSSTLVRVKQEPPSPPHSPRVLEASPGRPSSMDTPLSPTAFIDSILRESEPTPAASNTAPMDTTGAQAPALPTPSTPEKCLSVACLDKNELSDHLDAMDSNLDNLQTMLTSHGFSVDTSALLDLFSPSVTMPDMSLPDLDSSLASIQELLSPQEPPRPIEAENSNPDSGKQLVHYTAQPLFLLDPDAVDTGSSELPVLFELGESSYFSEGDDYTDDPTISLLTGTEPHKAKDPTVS

[2] = Luminescence Cell-Based Dose Confirmation HTS to Identify Inhibitors of Platelet Dense Granule Release. [Related pubchem assays: 1663 (Primary HTS), 1678 (Summary of Project)]; type: functional
[3] = biological target: Luciferin 4-monooxygenase (Photinus pyralis, UniProt P08659); assay: firefly luciferase enzyme inhibitors, dose response, biochemical, luminescence (AID 1891)
Cytochrome P450 2C19 = Cytochrome P450 2C19 (Homo sapiens, UniProt P33261); assay: Cytochrome panel assay with activity outcomes. Panel member name: p450-cyp2c19 Compounds with AC50 equal or less than 10 uM are considered active; type: functional; conditions: read-out: AC50
Cytochrome P450 3A4 = Cytochrome P450 3A4 (Homo sapiens, UniProt P08684);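 further: CYP3A4 tested as one member of a cytochrome P450 panel screen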
[4] = growth suppression of beta-catenin-knockout colon cells, dose response, cell-based, HCT116, human colon tumor (AID 1045); type: functional;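 further: HCT116 colon tumor cells with beta catenin knocked out; cells exposed to compound for 60 hours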
[5] = growth suppression of PTEN-null colon cells, dose response, cell-based, HCT116 PTEN knockout (AID 1047); type: functional;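 further: HCT116 colon tumor cells with PTEN knocked out; cells exposed to compound for 60 hours before readout; potency for loss of cell viability measured by luminescence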
INS1 = assay: beta cell apoptosis inhibitors, cytokine rescue, dose response, luminescence, retest (AID 449756); type: functional, cell-based; conditions: Rattus norvegicus;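 further: cell death triggered by IL-1 beta plus TNF-alpha plus IFN-gamma mixture; protective hits raise ATP signal compared with cytokine alone wells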

Cytochrome P450 2C19, sequence (P33261 whole entry): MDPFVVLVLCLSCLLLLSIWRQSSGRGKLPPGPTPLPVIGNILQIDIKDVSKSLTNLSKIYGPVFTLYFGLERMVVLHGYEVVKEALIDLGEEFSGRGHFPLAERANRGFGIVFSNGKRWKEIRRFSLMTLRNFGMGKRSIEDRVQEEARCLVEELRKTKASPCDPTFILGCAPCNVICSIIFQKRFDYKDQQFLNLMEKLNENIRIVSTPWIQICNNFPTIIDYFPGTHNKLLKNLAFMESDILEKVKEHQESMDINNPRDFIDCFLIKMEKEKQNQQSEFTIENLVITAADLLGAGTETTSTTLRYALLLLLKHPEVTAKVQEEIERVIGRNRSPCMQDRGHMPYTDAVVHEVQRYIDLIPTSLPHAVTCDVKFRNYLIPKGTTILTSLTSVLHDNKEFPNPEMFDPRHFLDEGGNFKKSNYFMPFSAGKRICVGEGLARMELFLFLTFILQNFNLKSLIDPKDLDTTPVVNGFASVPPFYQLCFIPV
Luciferin 4-monooxygenase, sequence (P08659 whole entry): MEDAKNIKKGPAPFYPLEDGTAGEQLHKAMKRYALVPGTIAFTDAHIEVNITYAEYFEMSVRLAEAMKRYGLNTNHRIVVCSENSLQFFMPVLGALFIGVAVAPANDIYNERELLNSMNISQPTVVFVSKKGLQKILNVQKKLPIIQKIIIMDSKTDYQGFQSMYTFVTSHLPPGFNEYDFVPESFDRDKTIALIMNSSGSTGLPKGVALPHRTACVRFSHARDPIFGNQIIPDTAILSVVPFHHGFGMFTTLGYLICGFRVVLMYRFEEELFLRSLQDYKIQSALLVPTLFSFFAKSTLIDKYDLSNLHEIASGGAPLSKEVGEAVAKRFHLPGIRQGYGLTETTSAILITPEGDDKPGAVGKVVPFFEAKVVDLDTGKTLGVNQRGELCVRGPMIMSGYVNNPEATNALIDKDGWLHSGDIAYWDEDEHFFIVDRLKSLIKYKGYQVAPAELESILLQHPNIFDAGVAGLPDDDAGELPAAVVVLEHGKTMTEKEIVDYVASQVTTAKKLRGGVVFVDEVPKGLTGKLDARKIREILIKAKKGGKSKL
Cytochrome P450 3A4, sequence (P08684 whole entry): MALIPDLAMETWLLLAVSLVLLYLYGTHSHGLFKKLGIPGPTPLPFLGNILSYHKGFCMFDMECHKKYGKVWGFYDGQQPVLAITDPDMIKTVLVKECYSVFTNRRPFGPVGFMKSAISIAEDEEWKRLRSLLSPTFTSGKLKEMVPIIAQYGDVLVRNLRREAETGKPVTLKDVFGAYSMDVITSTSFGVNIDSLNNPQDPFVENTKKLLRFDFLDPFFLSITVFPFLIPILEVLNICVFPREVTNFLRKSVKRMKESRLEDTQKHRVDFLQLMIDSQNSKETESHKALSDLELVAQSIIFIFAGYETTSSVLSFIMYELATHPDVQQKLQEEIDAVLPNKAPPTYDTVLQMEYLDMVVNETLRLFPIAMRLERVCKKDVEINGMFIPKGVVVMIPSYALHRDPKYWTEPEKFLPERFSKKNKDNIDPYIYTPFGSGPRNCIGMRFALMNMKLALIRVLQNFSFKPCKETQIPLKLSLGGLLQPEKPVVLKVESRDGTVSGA

## NS(=O)(=O)c1ccc(NC(=O)CN2C(=O)CCC2=O)cc1
[1]
  EC50: > 260 µM (inactive)

## CCN=C(S)NNC(=O)c1cc(-c2cccc(OC)c2)nc2ccccc12
[2]
  EC50: 7.86 µM (active)
[3]
  EC50: 0.259 µM (active)

## CCOC(=O)C1=NN(C(=O)Nc2ccc(OC)cc2)C2C(=O)N(c3cccc(C(F)(F)F)c3)C(=O)C12 (configuration not stated)
[2]
  EC50: 27.2 µM (active)
[3]
  EC50: > 112 µM (not active)

## COc1cc(NC(=S)N2CCN(C/C=C/c3ccccc3)CC2)cc(OC)c1
[2]
  EC50: > 112 µM (not active)
[3]
  EC50: > 112 µM (not active)

## [O-][n+]1c2c([n+]([O-])c3cc(F)c(F)cc31)CCCC2
Cytochrome P450 2C19
  AC50: 1 µM (inconclusive)

## CC(C)c1cccc2nc3c(c(C(C)(C)C)c12)Cn1c-3cccc1=O
Cytochrome P450 3A4
  AC50: 5.01 µM (inconclusive)
Cytochrome P450 2C19
  AC50: 25.1 µM (inconclusive)

## CCOc1ccc(S(=O)(=O)NN=C(S)Nc2ccc(Br)cc2)cc1
[1]
  EC50: > 260 µM (inactive)

## Nc1c(C(=O)NCCN2CCOCC2)c2nc3ccccc3nc2n1CCc1ccccc1
[4]
  EC50: 17.9 µM (active)
[5]
  EC50: 15.4 µM (active)

## COc1ccc2c(c1)-c1c(sn(-c3ccccc3)c1=S)C(C)(C)N2
[1]
  EC50: > 260 µM (inactive)

## COc1ccc(CNCc2cc3c(C(C)(C)C)nn(-c4ccccc4)c3nc2O)cc1
[4]
  EC50: 14.2 µM (active)
[5]
  EC50: 10.3 µM (active)

## O=C(NCCN1CCN(C(=O)c2ccc(Br)cc2)CC1)c1ccc(Br)cc1
[1]
  EC50: > 260 µM (inactive)

## C=CCNC(=O)c1ccc2nc(-c3ccccc3)c(-c3ccccc3)nc2c1
Cytochrome P450 2C19
  AC50: 39.8 µM (inconclusive)

## Cc1ccc2c(c1)C1CCCC3C1N2CC(=O)N3Cc1ccccc1 (configuration not stated)
[4]
  EC50: 62.7 µM (active)
[5]
  EC50: 33.9 µM (active)

## Cc1cc(C(C)(C)C)c(OCCCN2CCOCC2)c(C(C)(C)C)c1
Cytochrome P450 3A4
  AC50: 3.16 µM (inconclusive)

## COc1ccc2[nH]cc(C=O)c2c1
Cytochrome P450 2C19
  AC50: 28.2 µM (inconclusive)

## COC(=O)c1ccc2c(=O)n(-c3ccccc3)c(SCN3C(=O)c4ccccc4C3=O)nc2c1
INS1
  AC50: 6.09 µM (active)

## O=C(N/N=C\c1ccc(CNS(=O)(=O)c2ccc(Cl)cc2)o1)C(=O)Nc1ccc(Oc2ccccc2)cc1
[4]
  EC50: 11.1 µM (active)
[5]
  EC50: 9.47 µM (active)

## C/C(CCc1oc2c(Br)cc(Br)cc2c1-c1ccc(C)o1)=N\O
[1]
  EC50: > 260 µM (inactive)

## COCCNC(=O)c1cn(Cc2c(F)cccc2Cl)nn1
[2]
  EC50: > 112 µM (not active)
[3]
  EC50: > 112 µM (not active)

## COC(=O)c1cc(=O)n(Cc2ccco2)/c(=N/c2ccc(F)c(Cl)c2)s1
[4]
  EC50: 7.55 µM (active)
[5]
  EC50: 8.9 µM (active)

## NC(=O)c1c(NC(=O)c2ccc(S(=O)(=O)N(CCCl)CCCl)cc2)sc2c1CCCCC2
[4]
  EC50: 20.5 µM (active)
[5]
  EC50: 15 µM (active)

## CC1CC(OC(=O)CN2CCCCC2)CC(C)(C)C1 (configuration not stated)
[2]
  EC50: > 112 µM (not active)
[3]
  EC50: > 112 µM (not active)

## CCN(CC)c1ccc(C(=O)N/N=C/c2ccccc2OC(F)F)cc1
INS1
  AC50: 5.97 µM (active)

## C=CCNC(=O)/C(C#N)=C/c1c(N(Cc2ccccc2)Cc2ccccc2)nc2ccccn2c1=O
[4]
  EC50: 25.3 µM (active)
[5]
  EC50: 26 µM (active)

## COCC(=O)N/N=C/c1ccc(Sc2nc3ccccc3s2)o1
Cytochrome P450 3A4
  AC50: 22.4 µM (inconclusive)

## COc1c(/C=N/Nc2nc(N3CCCCC3)nc(N3CCCCC3)n2)cccc1[N+](=O)[O-]
Cytochrome P450 2C19
  AC50: 7.94 µM (inconclusive)

## COc1ccc(/C(C)=N/Nc2nc(C)cc(-c3ccccc3)n2)cc1
INS1
  AC50: 0.703 µM (active)

## COc1ccccc1C(=O)COC(=O)/C=C/c1ccccc1
[2]
  EC50: > 112 µM (not active)
[3]
  EC50: > 112 µM (not active)
